The values that follow come from patent publication US11814379B2, “Cyano quinoline amide compounds as HER2 inhibitors and methods of use” (DANA-FARBER CANCER INSTITUTE, INC., priority 2018, dated 2023).

The structures appear in SMILES notation. pEC50: −log10 of the molar value.

One experiment has as its target WT EGFR (Homo sapiens, UniProt P00533). Put plainly: Biochemical activities, WT EGFR.
Another experiment deals with WT HER2 (Homo sapiens, UniProt P04626). Put plainly: Biochemical activities, WT HER2.
The target of the next experiment is Ba/F3 cells WT EGFR (Homo sapiens, UniProt P00533). Put plainly: Antiproliferative activities (MTS assay), Ba/F3 cells WT EGFR. Type of experiment: cell-based. The conditions noted are these: 72 hours. The protocol:
(§1) Cell growth and growth inhibition were evaluated by […] (MTS) assay. A total of 3,000-4,000 cells were plated per well in 96-well plates and treated with each drug (at a dose range from 1 nM to 10 μM) for 3 days. Each experimental point was conducted in six replicates and all tests were repeated more than three times. IC50 data was obtained from a nonlinear regression model with sigmoidal dose response using GraphPad Prism (GraphPad Software, Inc.).
(§2) All ERBB insertion mutations were generated by using the Quikchange II XL Site-Directed Mutagenesis Kit (Agilent Tech) according to the manufacturer's protocol. The insertion mutations and wildtype form of human EGFR and HER2 were transduced into Ba/F3 cells by retroviral infection followed by treatment of puromycin and withdrawal of interleukin-3 for selection. […] Wild-type EGFR Ba/F3 cells were cultured in the same media supplemented with EGF (10 ng/ml).
(§3) Cell growth inhibition was assessed by MTS assay for Ba/F3 and H1781 cells. A total of 3,000-4,000 cells were seeded for per well in 96-well plates, and were exposed to representative compounds of the application (1 nM to 10 μM) for 72 hours. All experimental points included 6 wells. […] The growth curves were fitted using a nonlinear regression model with sigmoidal dose response.
(§4) Activities of representative compounds of the present application in inhibiting HER2 were tested by MTS assay (for Ba/F3 cells and H1781 cells). For each assay, a total of 3,000-4,000 cells were seeded per well in 96-well plates and were exposed to indicated compounds with a concentration of […] for 72 hours.
In general terms: Tetrazolium assays rely on reduction of a dye to a coloured formazan, in cell work by metabolically active cells.

The target in experiment [1] is T1, Ba/F3 cells WT HER2 (Homo sapiens, UniProt P04626).
T1 construct: Antiproliferative Activities (Ba/F3 cells) WT HER2; other: Ba/F3 cells, 72 hours, MTS
Put plainly: Antiproliferative activities (MTS assay), Ba/F3 cells WT HER2. Type of experiment: cell-based. Particulars: Ba/F3 cells, 72 hours, MTS. On the procedure: as §1, §2, §3, §4

The subject of experiment [2] is Ba/F3 cells WT HER2. Described as above. Type of experiment: cell-based, human. Particulars: for EGFR EC50/HER2 EC50: Ba/F3 cells, ratio WT EGFR to WT HER2. The protocol: as §1, §2, §3, §4
The target in a further experiment is Ba/F3 cells HER2 InsYVMA (Homo sapiens, UniProt P04626, DUP772-775, cells depend on it). Put plainly: Antiproliferative activities (MTS assay), Ba/F3 cells HER2 InsYVMA. The conditions noted are these: 72 hours. Type of experiment: cell-based. On the procedure:
as §1, §2, §3, §4

Another experiment addresses Ba/F3 cells HER2 InsGSP (Homo sapiens, UniProt P04626, DUP778-780, cells depend on it). As to the kind of experiment: Antiproliferative activities (MTS assay), Ba/F3 cells HER2 InsGSP. Particulars: 72 hours. It counts as cell-based. The protocol:
as §1, §2, §3, §4

Another experiment addresses Ba/F3 cells HER2 InsVC (Homo sapiens, UniProt P04626, DELINS776-776VC, cells depend on it). Put plainly: Antiproliferative activities (MTS assay), Ba/F3 cells HER2 InsVC. It counts as cell-based. Particulars: 72 hours. On the procedure:
as §1, §2, §3, §4

The target of the next experiment is Ba/F3 cells HER2 InsWLV (Homo sapiens, UniProt P04626, DELINS774-774WLV, cells depend on it). Put plainly: Antiproliferative activities (MTS assay), Ba/F3 cells HER2 InsWLV. It counts as cell-based. The conditions noted are these: 72 hours. The protocol: as §1, §2, §3, §4
The subject of another experiment is H1781 (HER2 InsVC). Put plainly: Antiproliferative activities in lung cancer cells, H1781. It counts as cell-based. Particulars: NCI-H1781. On the procedure: as §1
All ERBB insertion mutations were generated by using the Quikchange II XL Site-Directed Mutagenesis Kit (Agilent Tech) according to the manufacturer's protocol. The insertion mutations and wildtype form of human EGFR and HER2 were transduced into Ba/F3 cells by retroviral infection followed by treatment of puromycin and withdrawal of interleukin-3 for selection. Transformed Ba/F3 cells and the NSCLC cell line H1781 (with HER2 insertion VC) were cultured in Roswell Park Memorial Institute-1640 medium (Gibco) with 10% fetal bovine serum and 1% penicillin/streptomycin (Gibco). Wild-type EGFR Ba/F3 cells were cultured in the same media supplemented with EGF (10 ng/ml).
as §3, §4

In experiment [3] the test system is H1819 (Her2 amplification). Put plainly: Antiproliferative activities in lung cancer cells, H1819. It counts as cell-based. Particulars: NCI-H1819. The protocol: as §1
In experiment [4] the test system is Calu-3 (Her2 amplification). Put plainly: Antiproliferative activities in lung cancer cells, Calu-3. It counts as cell-based. Particulars: Homo sapiens. The protocol: as §1
For experiment [5], the system named is DFCI429 (Her2 amplification). As to the kind of experiment: Antiproliferative activities in lung cancer cells, DFCI429. Type of experiment: cell-based. On the procedure:
as §1

The test system of another experiment is HER2 mutations. The conditions noted are these: Phase I and II clinical data; cited from earlier work.
The target in experiment [6] is T2, HER2 insYVMA (A775_G776insYVMA) (Homo sapiens, UniProt P04626, INS775YVMA).
T2 construct: no response in all 13 patients with HER2 insYVMA (A775_G776insYVMA); host or cells: patients' tumours
The conditions noted are these: afatinib as a single agent; dacomitinib phase II trial, 13 patients; cited from earlier work.

Chain of WT EGFR (P00533 25-1210): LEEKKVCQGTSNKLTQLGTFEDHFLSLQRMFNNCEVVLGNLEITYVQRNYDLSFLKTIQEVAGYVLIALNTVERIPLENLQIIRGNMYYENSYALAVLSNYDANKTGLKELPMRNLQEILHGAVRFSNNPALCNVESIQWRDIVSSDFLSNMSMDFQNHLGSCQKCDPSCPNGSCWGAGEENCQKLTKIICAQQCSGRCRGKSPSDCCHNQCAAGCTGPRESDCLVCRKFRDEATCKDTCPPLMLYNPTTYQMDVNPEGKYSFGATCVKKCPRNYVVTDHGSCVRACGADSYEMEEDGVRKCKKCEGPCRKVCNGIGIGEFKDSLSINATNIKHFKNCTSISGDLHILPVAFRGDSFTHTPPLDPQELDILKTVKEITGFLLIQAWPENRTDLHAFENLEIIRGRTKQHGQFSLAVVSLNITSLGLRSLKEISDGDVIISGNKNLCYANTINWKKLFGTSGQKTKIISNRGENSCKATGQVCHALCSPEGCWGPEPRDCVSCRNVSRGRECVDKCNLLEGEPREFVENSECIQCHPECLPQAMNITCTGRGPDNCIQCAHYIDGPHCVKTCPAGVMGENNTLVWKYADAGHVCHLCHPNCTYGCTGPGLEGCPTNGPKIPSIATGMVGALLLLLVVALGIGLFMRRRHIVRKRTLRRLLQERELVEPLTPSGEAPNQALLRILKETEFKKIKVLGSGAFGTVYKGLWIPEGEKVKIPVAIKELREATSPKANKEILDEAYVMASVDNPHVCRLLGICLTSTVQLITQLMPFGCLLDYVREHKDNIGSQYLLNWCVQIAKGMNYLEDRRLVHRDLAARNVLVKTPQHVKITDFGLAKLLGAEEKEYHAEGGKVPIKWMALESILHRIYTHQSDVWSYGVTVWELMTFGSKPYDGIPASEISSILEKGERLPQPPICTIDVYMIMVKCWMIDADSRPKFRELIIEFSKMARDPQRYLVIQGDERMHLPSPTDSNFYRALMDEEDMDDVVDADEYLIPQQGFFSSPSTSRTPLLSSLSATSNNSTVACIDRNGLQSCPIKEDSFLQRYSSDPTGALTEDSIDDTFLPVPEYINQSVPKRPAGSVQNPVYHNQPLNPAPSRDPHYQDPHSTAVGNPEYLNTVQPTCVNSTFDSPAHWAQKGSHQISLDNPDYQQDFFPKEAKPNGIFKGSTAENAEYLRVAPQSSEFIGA
Chain of Ba/F3 cells WT EGFR (P00533 whole entry, stated change not applied): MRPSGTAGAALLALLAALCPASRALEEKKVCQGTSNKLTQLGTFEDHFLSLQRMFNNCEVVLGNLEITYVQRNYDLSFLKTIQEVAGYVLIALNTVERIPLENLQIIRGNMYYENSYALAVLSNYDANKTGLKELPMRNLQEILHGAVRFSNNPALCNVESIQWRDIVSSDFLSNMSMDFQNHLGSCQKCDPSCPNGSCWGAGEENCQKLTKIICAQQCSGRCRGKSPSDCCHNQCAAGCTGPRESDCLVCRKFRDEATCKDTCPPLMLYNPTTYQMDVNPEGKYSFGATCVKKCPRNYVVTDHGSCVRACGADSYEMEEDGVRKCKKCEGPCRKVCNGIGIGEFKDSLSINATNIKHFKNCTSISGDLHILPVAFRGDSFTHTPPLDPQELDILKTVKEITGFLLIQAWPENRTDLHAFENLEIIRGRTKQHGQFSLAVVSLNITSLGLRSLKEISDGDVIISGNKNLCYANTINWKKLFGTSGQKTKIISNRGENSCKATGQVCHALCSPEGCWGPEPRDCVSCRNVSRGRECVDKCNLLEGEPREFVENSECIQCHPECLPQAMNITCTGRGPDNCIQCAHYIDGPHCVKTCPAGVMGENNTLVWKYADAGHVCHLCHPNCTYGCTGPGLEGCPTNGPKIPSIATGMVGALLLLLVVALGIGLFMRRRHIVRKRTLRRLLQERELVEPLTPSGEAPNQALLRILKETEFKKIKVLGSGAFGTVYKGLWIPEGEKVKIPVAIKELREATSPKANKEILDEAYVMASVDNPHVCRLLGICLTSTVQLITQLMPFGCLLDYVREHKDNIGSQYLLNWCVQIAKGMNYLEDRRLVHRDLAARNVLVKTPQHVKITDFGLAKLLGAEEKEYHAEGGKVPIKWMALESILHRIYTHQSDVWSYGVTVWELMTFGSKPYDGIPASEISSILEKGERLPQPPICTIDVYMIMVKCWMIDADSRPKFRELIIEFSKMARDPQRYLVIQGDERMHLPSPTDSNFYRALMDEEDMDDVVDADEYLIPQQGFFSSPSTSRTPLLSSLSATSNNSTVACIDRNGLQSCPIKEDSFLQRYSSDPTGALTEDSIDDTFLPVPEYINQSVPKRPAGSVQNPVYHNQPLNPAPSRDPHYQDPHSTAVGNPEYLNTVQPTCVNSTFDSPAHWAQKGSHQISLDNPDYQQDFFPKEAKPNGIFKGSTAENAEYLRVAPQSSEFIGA

Usually pEC50 stands for −log10 of the EC50, conventionally taken in molar units. `CCOc1cc2ncc(C#N)c(Nc3ccc(Oc4ccn5ncnc5c4)c(C)c3)c2cc1NC(=O)/C=C/CN(C)C` [Compound 1, (E)-N-(4-((4-([1,2,4]triazolo[1,5-a]pyridin-7-yloxy)-3-methylphenyl)amino)-3-cyano-7-ethoxyquinolin-6-yl)-4-(dimethylamino)but-2-enamide]: the pEC50 at WT EGFR is 6.60 to 7.00; at WT HER2, greater than 7.00; at Ba/F3 cells WT EGFR, 6.30 to 6.60; at Ba/F3 cells WT HER2 [1], greater than 7.00; at Ba/F3 cells HER2 InsYVMA, greater than 7.00; on Ba/F3 cells HER2 InsGSP it was greater than 7.00. For the same compound, the pEC50 was greater than 7.00 on Ba/F3 cells HER2 InsVC; greater than 7.00 on Ba/F3 cells HER2 InsWLV; 6.60 to 7.00 in the experiment on H1781 (HER2 InsVC); greater than 7.00 in experiment [3]; greater than 7.00 in experiment [4]; 6.60 to 7.00 in [5]. The “EGFR EC50/HER2 EC50” value in the experiment on Ba/F3 cells WT HER2 [2] turned out to be 32. Further, in the experiment on Ba/F3 cells WT HER2 [2] (FIG. 4 bar graph), the “inhibition of HER2 and its mutant over EGFR” value is recorded as “selective inhibition”.

For the compound `CCOc1cc2ncc(C#N)c(Nc3ccc(Oc4ccn5ncnc5c4)c(Cl)c3)c2cc1NC(=O)/C=C/CN(C)C` [Compound 3], the pEC50 on Ba/F3 cells WT EGFR was 6.30 to 6.60; on Ba/F3 cells WT HER2 [1], greater than 7.00; on Ba/F3 cells HER2 InsYVMA, greater than 7.00; at Ba/F3 cells HER2 InsGSP, greater than 7.00; on Ba/F3 cells HER2 InsVC it was greater than 7.00; on Ba/F3 cells HER2 InsWLV, greater than 7.00. Also, the “EGFR EC50/HER2 EC50” value in the experiment on Ba/F3 cells WT HER2 [2] stood at 87.

`COc1cc2ncnc(Nc3ccc(F)c(Cl)c3)c2cc1NC(=O)/C=C/CN1CCCCC1` [dacomitinib]: the “response to treatment of patients harboring HER2 mutations” value with HER2 mutations is “partially responded”. Also, in experiment [6], the “response of patients with HER2 insYVMA” value is reported as “no response”.

With `CCOc1cc2ncc(C#N)c(Nc3ccc(Oc4ccn5ncnc5c4)c(F)c3)c2cc1NC(=O)/C=C/CN(C)C` [Compound 2], the pEC50 on WT EGFR is 6.60 to 7.00; on WT HER2, greater than 7.00; on Ba/F3 cells WT EGFR it was less than 6.30; at Ba/F3 cells WT HER2 [1], greater than 7.00; on Ba/F3 cells HER2 InsYVMA it was greater than 7.00; at Ba/F3 cells HER2 InsGSP it was greater than 7.00. Also, the pEC50 was 6.30 to 6.60 at Ba/F3 cells HER2 InsVC and 6.60 to 7.00 on Ba/F3 cells HER2 InsWLV. For the same compound, in the experiment on Ba/F3 cells WT HER2 [2], the “EGFR EC50/HER2 EC50” value amounted to 222.

For `CCOc1cc2ncc(C#N)c(Nc3ccc(Oc4ccn5nccc5c4)c(C)c3)c2cc1NC(=O)/C=C/CN(C)C` [Compound 5], the negative-log EC50 (pEC50) is 6.60 to 7.00 at Ba/F3 cells WT EGFR; greater than 7.00 at Ba/F3 cells WT HER2 [1]; greater than 7.00 at Ba/F3 cells HER2 InsYVMA; greater than 7.00 at Ba/F3 cells HER2 InsGSP; greater than 7.00 at Ba/F3 cells HER2 InsVC; 6.60 to 7.00 at Ba/F3 cells HER2 InsWLV. In the experiment on Ba/F3 cells WT HER2 [2], the “EGFR EC50/HER2 EC50” value is listed as 6.

As for `CCOc1cc2ncc(C#N)c(Nc3ccc(Oc4ccc5ccn(C)c5c4)c(C)c3)c2cc1NC(=O)/C=C/CN(C)C` [Compound 6], the pEC50 at Ba/F3 cells WT EGFR was less than 6.30; on Ba/F3 cells WT HER2 [1], greater than 7.00; at Ba/F3 cells HER2 InsYVMA it was greater than 7.00; at Ba/F3 cells HER2 InsGSP, greater than 7.00; on Ba/F3 cells HER2 InsVC it was greater than 7.00; on Ba/F3 cells HER2 InsWLV it was 6.60 to 7.00. Further, in the experiment with Ba/F3 cells WT HER2 [2], the “EGFR EC50/HER2 EC50” value worked out at 178.

For the compound `Cc1cc(Nc2ncnc3ccc(NC4=NC(C)(C)CO4)cc23)ccc1Oc1ccn2ncnc2c1` [Irbinitinib, reference compound], the pEC50 is 6.30 to 6.60 at WT EGFR; greater than 7.00 at WT HER2; less than 6.30 on Ba/F3 cells WT EGFR; 6.30 to 6.60 on Ba/F3 cells WT HER2 [1]; 6.60 to 7.00 at Ba/F3 cells HER2 InsYVMA; 6.60 to 7.00 on Ba/F3 cells HER2 InsGSP. In addition, the pEC50 is less than 6.30 on Ba/F3 cells HER2 InsVC; 6.30 to 6.60 at Ba/F3 cells HER2 InsWLV; no more than 6.30 in the experiment on H1781 (HER2 InsVC); 6.60 to 7.00 in experiment [3]; no more than 6.30 in experiment [4]; no more than 6.30 in experiment [5]. Besides, in the experiment with Ba/F3 cells WT HER2 [2], the “EGFR EC50/HER2 EC50” value is listed as 18.

Turning to `CN(C)C/C=C/C(=O)Nc1cc2c(Nc3ccc(F)c(Cl)c3)ncnc2cc1O[C@H]1CCOC1` [Afatinib], the pEC50 with H1781 (HER2 InsVC) is 6.60 to 7.00; in experiment [3] it was greater than 7.00; in experiment [4], 6.60 to 7.00; in experiment [5], 6.60 to 7.00. Further, the “response to treatment of patients harboring HER2 mutations” value with HER2 mutations is listed as “partially responded”. In addition, the “response of patients with HER2 insYVMA” value in experiment [6] is “durable responses”.

For `CCOc1cc2ncc(C#N)c(Nc3ccc(Oc4ccn5ccnc5c4)c(C)c3)c2cc1NC(=O)/C=C/CN(C)C` [Compound 4], the pEC50 at Ba/F3 cells WT EGFR was less than 6.30; at Ba/F3 cells WT HER2 [1], greater than 7.00; at Ba/F3 cells HER2 InsYVMA it was greater than 7.00; on Ba/F3 cells HER2 InsGSP it was greater than 7.00; on Ba/F3 cells HER2 InsVC, greater than 7.00; on Ba/F3 cells HER2 InsWLV, 6.60 to 7.00. The “EGFR EC50/HER2 EC50” value with Ba/F3 cells WT HER2 [2] worked out at 49.
